# Test results published in patent publication US20210403860A1 (priority 2018, published 2021).
# Values joined by “and” are separate entries in the source; they are usually repeats but may differ in a detail not shown here. Equal values may be shown once. Read-outs that look alike come from different tables or passages of the source.
# How the values were obtained:
# Bacillus cereus [1] = conditions: cited from earlier work
# [2] = system: Lysinibacillus mangiferihumi; format: cell-based
# Ca. L. asiaticus [3] = format: cell-based, Candidatus Liberibacter asiaticus (strain psy62); conditions: for fold change in Ca. L. asiaticus GE: 7 days
# Pseudomonadaceae = format: cell-based
# Paenibacillus silvae = format: cell-based
# Clostridium argentinense = format: cell-based
# [4] = system: Flavobacterium acidificum; format: cell-based
# Pantoea cypripedii = format: cell-based
# Brevibacillus gelatini = format: cell-based
# Pseudomonas putida = format: cell-based
# Comamonas terrigena = format: cell-based
# [5] = system: Stenotrophomonas bentonitica; format: cell-based
# Bacillus cereus [6] = format: cell-based
# Ca. L. asiaticus [7] = conditions: cited from earlier work
# Bacillaceae = format: cell-based
# Ca. L. asiaticus [8] = format: cell-based; conditions: 10 mM glucose and 100 μg/ml amikacin
compound,measurement,setting,value
[H]/N=C(/N)N[C@H]1[C@H](O)[C@@H](O)[C@H](O[C@@H]2O[C@@H](C)[C@](O)(C=O)[C@H]2O[C@@H]2O[C@@H](CO)[C@H](O)[C@@H](O)[C@@H]2NC)[C@@H](N/C(N)=N\[H])[C@@H]1O [streptomycin],concentration sub-inhibitory to Bacillus cereus,Bacillus cereus [1],< 2.9 µg/mL
same,proportion of OTU 4,[2],0.000
same,fold change in Ca. L. asiaticus GE,"Ca. L. asiaticus [3]; 0.02 μg/ml streptomycin, vs non-antibiotic control",5.56±0.15 fold and ~6 fold
same,Ca. L. asiaticus growth compared to untreated cultures,Ca. L. asiaticus [3]; streptomycin >0.5 μg/ml,reduced
same,decrease of proportion of Pseudomonadaceae compared to non-antibiotic samples,Pseudomonadaceae,5.5 times and 9.8 times
same,proportion of OTU 8,Paenibacillus silvae,0.000
same,proportion of OTU 5,Clostridium argentinense; Str 0.02 μg/ml,0.002
same,proportion of OTU 5,Clostridium argentinense; Str 0.05 μg/ml,0.007
same,proportion of OTU 5,Clostridium argentinense; Str 0.5 μg/ml,0.154
same,proportion of OTU 5,Clostridium argentinense; Str 1.00 μg/ml,0.131
same,proportion of OTU 5,Clostridium argentinense; Str 2.00 μg/ml,0.104
same,proportion of OTU 10,[4],0.000
C[C@H]1O[C@H](O[C@H]2[C@H](O)[C@@H](O)[C@@H](O)[C@H](O)[C@@H]2O)[C@@H](N)C[C@@H]1NC(=N)C(=O)O [kasugamycin],proportion of OTU 7,Pantoea cypripedii,0.005
same,proportion of OTU 4,[2],0.000
same,proportion of OTU 9,Brevibacillus gelatini,0.001
same,enhancement of Ca. L. asiaticus growth,Ca. L. asiaticus [3]; kasugamycin treatment,did not enhance
same,proportion of OTU 1,Pseudomonas putida,0.599
same,proportion of OTU 8,Paenibacillus silvae,0.000
same,proportion of OTU 5,Clostridium argentinense; Kag 0.25 μg/ml,0.030
same,proportion of OTU 6,Comamonas terrigena,0.000
same,proportion of OTU 2,[5],0.136
same,proportion of OTU 3,Bacillus cereus [6],0.001
same,proportion of OTU 10,[4],0.056
polymyxin B,concentration sub-inhibitory to Bacillus cereus,Bacillus cereus [1],< 0.65 µg/mL
same,proportion of OTU 4,[2],0.000
same,activity against / sensitivity of Ca. L. asiaticus,Ca. L. asiaticus [7],not active
same,fold change in Ca. L. asiaticus GE,"Ca. L. asiaticus [3]; 2 μg/ml polymyxin B, vs non-antibiotic control",2.28±0.15 fold
same,fold change in Ca. L. asiaticus GE,"Ca. L. asiaticus [3]; 4 μg/ml polymyxin B, vs non-antibiotic control",4.54±0.83 fold
same,fold change in Ca. L. asiaticus GE,"Ca. L. asiaticus [3]; <1 μg/ml polymyxin B, vs untreated cultures",0.03±0.13 fold
same,decrease of proportion of Pseudomonadaceae compared to non-antibiotic samples,Pseudomonadaceae,30.5 times
same,proportion of OTU 8,Paenibacillus silvae,0.000
same,proportion of OTU 5,Clostridium argentinense; Pmb 0.5 μg/ml,0.194
same,proportion of OTU 5,Clostridium argentinense; Pmb 2 μg/ml,0.001
same,proportion of OTU 5,Clostridium argentinense; Pmb 4 μg/ml,0.011
same,reads that were Bacillaceae members,Bacillaceae,70.7%
NCC[C@H](O)C(=O)N[C@@H]1C[C@H](N)[C@@H](O[C@H]2O[C@H](CN)[C@@H](O)[C@H](O)[C@H]2O)[C@H](O)[C@H]1O[C@H]1O[C@H](CO)[C@@H](O)[C@H](N)[C@H]1O [amikacin],"Ca. L. asiaticus GE, day 3",Ca. L. asiaticus [8]; 10% O2 (FIG. 13),1.15×10^5±2.8×10^4 GE
same,fold potentiation in Ca. L. asiaticus DNA content vs glucose alone,Ca. L. asiaticus [8]; three days,3.03 fold
same,overall fold increase in GE compared to starting material (d0),Ca. L. asiaticus [8]; three days,11.1 fold
same,activity against / sensitivity of Ca. L. asiaticus,Ca. L. asiaticus [7],does not appear to be sensitive
CN[C@H](CC(C)C)C(=O)N[C@H]1C(=O)N[C@@H](CC(N)=O)C(=O)N[C@H]2C(=O)N[C@H]3C(=O)N[C@H](C(=O)N[C@H](C(=O)O)c4cc(O)cc(O)c4-c4cc3ccc4O)[C@H](O)c3ccc(c(Cl)c3)Oc3cc2cc(c3O[C@@H]2O[C@H](CO)[C@@H](O)[C@H](O)[C@H]2O[C@H]2C[C@](C)(N)[C@H](O)[C@H](C)O2)Oc2ccc(cc2Cl)[C@H]1O [vancomycin],proportion of OTU 9,Brevibacillus gelatini,0.000
same,fold change in Ca. L. asiaticus GE,"Ca. L. asiaticus [3]; 50 μg/ml vancomycin, vs non-antibiotic control",7.35±0.27 fold
same,proportion of OTU 1,Pseudomonas putida,0.479 and 0.469 and 0.398 and 0.318 and 0.527
same,proportion of OTU 8,Paenibacillus silvae,0.000
same,proportion of OTU 5,Clostridium argentinense; Van 25 μg/ml,0.120
same,proportion of OTU 5,Clostridium argentinense; Van 35 μg/ml,0.101
same,proportion of OTU 5,Clostridium argentinense; Van 50 μg/ml,0.071
same,proportion of OTU 5,Clostridium argentinense; Van 75 μg/ml,0.039
same,proportion of OTU 5,Clostridium argentinense; Van 100 μg/ml,0.004
